Measurements published in PubChem BioAssay AID1963874 (Molecular Pharmacology Branch, DTP, NCI, 2024).

Test system: 253994-281-T-J1-PDC KRAS-mutant spheroids with HUVEC/MSC, viability
Assay: Anticancer human tumor 253994-281-T-J1-PDC patient-derived colorectal carcinoma cell line growth inhibition [KRAS2]
Conditions: for IC50: curve of first compound; for viability, T/C: stronger effect = lower value
Outline: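 Combination screen of spheroid viability in tumor-cell co-cultures with endothelial (HUVEC) and mesenchymal stem cell stroma. Each agent was tested in half-log dilutions, topping at clinical Cmax or at 10 microM without a known Cmax.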

[1] = second compound 0.1 µM, first compound 0.0316 µM
[2] = second compound 0.1 µM, first compound 0.1 µM
[3] = second compound 0.1 µM, first compound 0.316 µM
[4] = second compound 0.1 µM, first compound 1 µM
[5] = second compound 0.1 µM, first compound 3.16 µM
[6] = second compound 0.1 µM, first compound 10 µM
[7] = second compound 0.316 µM, first compound 0.0316 µM
[8] = second compound 0.316 µM, first compound 0.1 µM
[9] = second compound 0.316 µM, first compound 0.316 µM
[10] = second compound 0.316 µM, first compound 1 µM
[11] = second compound 0.316 µM, first compound 3.16 µM
[12] = second compound 0.316 µM, first compound 10 µM
[13] = second compound 1 µM, first compound 0.0316 µM
[14] = second compound 1 µM, first compound 0.1 µM
[15] = second compound 1 µM, first compound 0.316 µM
[16] = second compound 1 µM, first compound 1 µM
[17] = second compound 1 µM, first compound 3.16 µM
[18] = second compound 1 µM, first compound 10 µM
[19] = second compound 3.16 µM, first compound 0.0316 µM
[20] = second compound 3.16 µM, first compound 0.1 µM
[21] = second compound 3.16 µM, first compound 0.316 µM
[22] = second compound 3.16 µM, first compound 1 µM
[23] = second compound 3.16 µM, first compound 3.16 µM
[24] = second compound 3.16 µM, first compound 10 µM
[25] = second compound 10 µM, first compound 0.0316 µM
[26] = second compound 10 µM, first compound 0.1 µM
[27] = second compound 10 µM, first compound 0.316 µM
[28] = second compound 10 µM, first compound 1 µM
[29] = second compound 10 µM, first compound 3.16 µM
[30] = second compound 10 µM, first compound 10 µM
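Note: spheroids exposed to agents for seven days before readout.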
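Throughout, for viability, T/C: percent of DMSO vehicle control viability.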

SMILES	IC50 (second compound 0.1 µM)	IC50 (second compound 0.316 µM)	IC50 (second compound 1 µM)	IC50 (second compound 3.16 µM)	IC50 (second compound 10 µM)	viability, T/C [1]	viability, T/C [2]	viability, T/C [3]	viability, T/C [4]	viability, T/C [5]	viability, T/C [6]	viability, T/C [7]	viability, T/C [8]	viability, T/C [9]	viability, T/C [13]	viability, T/C [14]	viability, T/C [19]	viability, T/C [20]	viability, T/C [25]	viability, T/C [26]	further results
COc1cc(Nc2ncc3c(n2)-c2ccc(Cl)cc2C(c2c(F)cccc2OC)=NC3)ccc1C(=O)O + COc1cc2nc(C)nc(NC(C)c3cc(N)cc(C(F)(F)F)c3)c2cc1OC1CCOC1	< 31.6 nM	< 31.6 nM	< 31.6 nM	< 31.6 nM	< 31.6 nM	63.4%	29.7%	26.6%	35.2%	39.9%	38.6%	51.4%	26.8%	26.5%	49%	34.3%	50.1%	30%	38.3%	31.4%	viability, T/C [10]: 33.1%; viability, T/C [11]: 35.2%; viability, T/C [12]: 33.6%; viability, T/C [15]: 22.4%; viability, T/C [16]: 27.5%; viability, T/C [17]: 31%; viability, T/C [18]: 34.5%; viability, T/C [21]: 26%; viability, T/C [22]: 29%; viability, T/C [23]: 41.7%; viability, T/C [24]: 45.1%; viability, T/C [27]: 25.7%; viability, T/C [28]: 31.6%; viability, T/C [29]: 35.7%; viability, T/C [30]: 29.1%
COc1cc2nccc(Oc3ccc(NC(=O)C4(C(=O)Nc5ccc(F)cc5)CC4)cc3)c2cc1OC + COc1cc2nc(C)nc(NC(C)c3cc(N)cc(C(F)(F)F)c3)c2cc1OC1CCOC1	> 10000 nM	> 10000 nM	5930 nM	4910 nM	5180 nM	99.1%	101%	118%	89.4%	87.6%	52.2%	106%	110%	113%	101%	106%	99.6%	97.3%	93.8%	89.1%	viability, T/C [10]: 109%; viability, T/C [11]: 92.2%; viability, T/C [12]: 59.3%; viability, T/C [15]: 101%; viability, T/C [16]: 92.5%; viability, T/C [17]: 76.4%; viability, T/C [18]: 28.3%; viability, T/C [21]: 109%; viability, T/C [22]: 104%; viability, T/C [23]: 70.2%; viability, T/C [24]: 17.7%; viability, T/C [27]: 86.5%; viability, T/C [28]: 82.3%; viability, T/C [29]: 81.7%; viability, T/C [30]: 7.51%
Cn1ncnc1[C@H]1c2n[nH]c(=O)c3cc(F)cc(c23)N[C@@H]1c1ccc(F)cc1 + COc1cc2nc(C)nc(NC(C)c3cc(N)cc(C(F)(F)F)c3)c2cc1OC1CCOC1	> 100 nM	> 100 nM	> 100 nM	> 100 nM	> 100 nM	92.5%	78.8%					91.9%	78.1%		87.1%	85.3%	77.2%	85.5%	83.7%	68.3%	viability, T/C (second compound 0.1 µM, first compound 0.000316 µM): 92.5%; viability, T/C (second compound 0.1 µM, first compound 0.001 µM): 95.7%; viability, T/C (second compound 0.1 µM, first compound 0.00316 µM): 79%; viability, T/C (second compound 0.1 µM, first compound 0.01 µM): 90.8%; viability, T/C (second compound 0.316 µM, first compound 0.000316 µM): 80%; viability, T/C (second compound 0.316 µM, first compound 0.001 µM): 84.5%; viability, T/C (second compound 0.316 µM, first compound 0.00316 µM): 86.1%; viability, T/C (second compound 0.316 µM, first compound 0.01 µM): 80.4%; viability, T/C (second compound 1 µM, first compound 0.000316 µM): 88.5%; viability, T/C (second compound 1 µM, first compound 0.001 µM): 92.2%; viability, T/C (second compound 1 µM, first compound 0.00316 µM): 86.6%; viability, T/C (second compound 1 µM, first compound 0.01 µM): 89.1%; viability, T/C (second compound 3.16 µM, first compound 0.000316 µM): 87.5%; viability, T/C (second compound 3.16 µM, first compound 0.001 µM): 86.5%; viability, T/C (second compound 3.16 µM, first compound 0.00316 µM): 91.7%; viability, T/C (second compound 3.16 µM, first compound 0.01 µM): 89.7%; viability, T/C (second compound 10 µM, first compound 0.000316 µM): 80.9%; viability, T/C (second compound 10 µM, first compound 0.001 µM): 84.7%; viability, T/C (second compound 10 µM, first compound 0.00316 µM): 72.6%; viability, T/C (second compound 10 µM, first compound 0.01 µM): 77.7%
